# Patent US20140275257A1, “N-ACETYL CYSTEINE COMPOSITIONS IN THE TREATMENT OF SYSTEMIC LUPUS ERYTHEMATOSUS” (Foundation for the State University of New York, priority 2013, published 2014)
# How the values were obtained:
# [1] = tested on: lupus T cells; experiment: Flow cytometry of mitochondrial transmembrane potential, mitochondrial mass, H2O2 and NO in T cells of treated SLE patients; type: in vivo, human
# Description: Cell viability was monitored with annexin V conjugated to fluorescein isothiocyanate (annexin V-FITC conjugate), annexin V conjugated to phycoerythrin (annexin V-PE conjugate), or annexin V conjugated to fluorochrome Cy5 (Annexin V-Cy5 conjugate) matched with emission spectra of propidium iodide (PrI) to detect Annexin V+/PrI− apoptotic cells. Mitochondrial transmembrane potential (ΔΨm) was monitored with mitochondrial potentiometric dyes such as 3,3′-dihexyloxacarbocyanine iodide ((DiOC6), using an excitation wavelength of […] and emission at 488 nm, recorded at 525 nm in the FL-1 (green fluorescence) channel); and tetramethylrhodamine, methyl ester ((TMRM), using an excitation wavelength of […], and emission at 543 nm, recorded at 567 nm in the FL-2 (yellow/orange fluorescence) channel), potential-insensitive mitochondrial dyes such as MitoTracker Green-FM (MTG, 100 nM; excitation: 490 nm, emission: 516 nm recorded in FL-1) or nonyl acridine orange (NAO, 50 nM; excitation: 490 nm, emission: 540 nm recorded in FL-1), superoxide sensing hydroethidine (HE, 1 μM) and H2O2-sensing dichlorofluorescein diacetate (DCF-DA, 1 μM), nitric oxide sensor 4-amino-5-methylamino-2′,7′-difluoroflourescein diacetate (DAF-FM, 1 μM, excitation: 495, emission: 515 nm recorded in FL-1), or cytosolic probes (Fluo-3, 1 μM, excitation: 506 nm, emission: 526 nm recorded in FL-1) and mitochondrial Ca^2+-sensitive fluorescent probes (Rhod-2, 1 μM), respectively.
# All metabolic and mitochondrial sensor dyes were obtained from Invitrogen (Carlsbad, Calif.) and used as earlier described in Fernandez, D. R. et al., “Activation of mTOR controls the loss of TCR in lupus T cells through HRES-1/Rab4-regulated lysosomal degradation,” J. Immunol., 182: 2063-2073 (2009); Banki, K. et al., “Glutathione Levels and Sensitivity to Apoptosis Are Regulated by changes in Transaldolase expression,” J. Biol. Chem., 271: 32994-33001 (1996); Banki, K. et al., “Elevation of mitochondrial transmembrane potential and reactive oxygen intermediate levels are early events and occur independently from activation of caspases in Fas signaling,” J. Immunol., 162: 1466-1479 (1999); Nagy, G. et al., “T cell activation-induced mitochondrial hyperpolarization is mediated by Ca^2+- and redox-dependent production of nitric oxide,” J. Immunol., 171: 5188-5197 (2003); and Perl, A. et al., “Apoptosis and mitochondrial dysfunction in lymphocytes of patients with systemic lupus erythematosus,” In: Perl, A., editor. Autoimmunity: Methods and Protocol. 1 ed. Totowa, N.J.: Humana; 2004 p. 87-114, the entire disclosures of each of which are incorporated by reference herein.
# NO production (FIG. 3D: DAF-FM fluorescence), and mitochondrial mass were measured in T cell subsets following CD3/CD28 stimulation for 16 h (FIG. 3E: NAO fluorescence). FIG. 3F: Spontaneous apoptosis rate was enumerated by the percentage of Ann V+/PrI− T cells after culture for 16 h. FIG. 3G: Activation-induced apoptosis was assessed following CD3/CD28 co-stimulation for 16 h. Visits: visit 1, before 1st NAC dose; visit 2, after 1-month treatment; visit 3, after 2-month treatment; visit 4, after 3-month treatment; visit 5, after 1-month washout.
# [2] = tested on: FoxP3; experiment: FoxP3 expression in T-cell subsets by flow cytometry; type: in vivo, human
# Method: Foxp3 expression was measured in permeabilized cells using Alexa-647-conjugated antibody from BioLegend (San Diego, Calif.; cat No 320014). Up to 11 parameters were recorded simultaneously using a Becton Dickinson LSRII flow cytometer equipped with 20 mW solid-state Nd-YAG (emission at 355 nm), 20 mW argon (emission at 488 nm), 10 mW diode pumped solid state yellow-green (emission 561 nm) and 16 mW heliumneon lasers (emission at 634 nm). Each patient's cells were processed and analyzed in parallel with a matched control. […] FIG. 5A: FoxP3 expression in CD4^+/CD25^+ and CD8^+/CD25^+ T cell subsets of lupus and control donors matched for age, gender, and ethnicity by flow cytometry. Red and blue values indicate percentage of FoxP3^+ cells in lupus and control donors, respectively. FIG. 5B: Cumulative analysis of FoxP3 expression in CD25^+ T-cell subsets in lupus subjects and matched controls. p values reflect comparison with two-tailed unpaired t-test. FIG. 5C: Effect of NAC on Foxp3 expression in CD25^+ T cell subsets of lupus patients exposed to all doses considered together. p values reflect comparison with two-tailed paired t-test.
# [3] = Double Negative (DN) T cells after 3-month NAC treatment, declined after washout
smiles,measurement,setting,value
"CC(=O)N[C@@H](CS)C(=O)O [NAC, N-acetyl-L-cysteine]",Mitochondrial mass,[1]; DN T cells following CD3/CD28 co-stimulation,robustly increased
same,H2O2 levels,[1]; [3],increased
same,Mitochondrial mass,[1]; [3],increased
same,production of NO,"[1]; after 3 months, p=0.002",1.61±0.17 fold
same,Δψm (mitochondrial transmembrane potential),"[1]; all T cells, p=0.0001",increased
same,CD4+/CD25+/FoxP3+ T cells,"[2]; 4.8 g/day NAC, after 2 months, baseline 3.2±0.6%, p=0.018",5.2±0.9%
same,FoxP3 expression in CD25+ DN T cells,"[2]; after 2-month NAC treatment, baseline 1.29±0.23%, p=0.0160",2.24±0.38%
same,percentage of FoxP3+ cells within the CD4+/CD25+ T-cell compartment,"[2]; all NAC-treated patients, p=0.045",increased
